11 compounds from PubChem BioAssay (NCI) can be followed below.

Some test systems named below: SW-620 colon; UO-31 renal; M14 melanoma; RXF 393 renal; SR leukemia; KM12 colon; LOX IMVI melanoma; K-562 leukemia; CAKI-1 renal; HOP-92 NSCLC.
Assay in all cases: NCI tumour cell line growth inhibition, 48 h

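Each compound was tested at five concentrations against cells in 96-well plates for 48 hours. GI50: concentration for 50% inhibition of growth. The concentration for full growth arrest is given as TGI.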 Some results are limits rather than exact numbers.

As for `COc1ccc(C(=C(C#N)C#N)c2ccc(OC)cc2)cc1`, the TGI in the assay on SW-620 colon, in the assay with UO-31 renal, with M14 melanoma, with RXF 393 renal, with SR leukemia and in the assay on KM12 colon was greater than 100 µM throughout. Besides, the TGI in the assay on LOX IMVI melanoma, with K-562 leukemia and with CAKI-1 renal was greater than 100 µM in each case.
With `Nc1nc2ccccc2c2[nH]c3ccccc3c12`, the GI50 in the assay on SW-620 colon was 0.384 µM; in the assay with UO-31 renal, 1.31 µM; in the assay on M14 melanoma, 1.6 µM; in the assay with RXF 393 renal it was 0.311 µM; with SR leukemia, 0.64 µM; in the assay on KM12 colon it was 1.04 µM. The GI50 in the assay with LOX IMVI melanoma was 1.05 µM. Besides, the TGI in the assay on SW-620 colon came out at 1.96 µM; in the assay on UO-31 renal it was 2.61 µM; in the assay with M14 melanoma, 2.95 µM; with RXF 393 renal it was 1.48 µM; in the assay with SR leukemia, 4.8 µM; in the assay on KM12 colon, 3.26 µM. In the assay on LOX IMVI melanoma, this compound had a TGI of 2.28 µM.
For the compound `CC(=O)O[C@H]1CC[C@@]2(C)C(=CC[C@@H]3C2CC[C@]2(C)C(=O)NC(=O)CC32)C1` (stereo partly specified), the TGI in the assay on SW-620 colon was greater than 100 µM; in the assay with UO-31 renal, greater than 100 µM; in the assay on M14 melanoma, greater than 100 µM; with RXF 393 renal, 84.1 µM; in the assay on KM12 colon, greater than 100 µM; in the assay on LOX IMVI melanoma, greater than 100 µM. The TGI with HOP-92 NSCLC, in the assay on K-562 leukemia and in the assay on CAKI-1 renal was greater than 100 µM in each case.
For `CC1=CC[C@@H]2[C@@H](CC[C@@]2(C)O)C(C)(C)[C@H]1CC[C@@H]1[C@@]2(C)CC[C@@H](O)C(C)(C)O[C@@H]2CC[C@]1(C)O`, the TGI in the assay with SW-620 colon worked out at 85.7 µM; with UO-31 renal, 34.3 µM; with M14 melanoma, 61.9 µM; in the assay with SR leukemia it was 42.8 µM; in the assay on LOX IMVI melanoma, 29.8 µM; with HOP-92 NSCLC it was 37.1 µM. Moreover, the figures for the TGI with K-562 leukemia and in the assay on CAKI-1 renal were greater than 100 µM and 54.2 µM, respectively.
As to `CCOc1cccc2sc(N)nc12`, the TGI in the assay with SW-620 colon, in the assay on UO-31 renal, in the assay with M14 melanoma, in the assay with RXF 393 renal, with KM12 colon and in the assay with LOX IMVI melanoma was greater than 100 µM throughout. Further, the TGI in the assay with HOP-92 NSCLC, with K-562 leukemia and in the assay on CAKI-1 renal was greater than 100 µM throughout.
In the case of `COc1cc(-c2nn(-c3ccc(NC(=O)Nc4ccc(Cl)c(C(F)(F)F)c4)cc3)cc2-c2ccncc2)ccc1Cl`, the GI50 in the assay with SW-620 colon was 1.82 µM; with UO-31 renal it was 1.44 µM; in the assay on M14 melanoma, 1.74 µM; with RXF 393 renal, 1.54 µM; in the assay on KM12 colon, 1.36 µM; in the assay on LOX IMVI melanoma, 1.43 µM. Moreover, the values for the GI50 in the assay with HOP-92 NSCLC, with K-562 leukemia and in the assay with CAKI-1 renal were 1.82 µM, 1.59 µM and 1.29 µM, respectively. The TGI with SW-620 colon was 3.58 µM; in the assay on UO-31 renal, 3.13 µM; with M14 melanoma, 3.63 µM; in the assay with RXF 393 renal, 4.41 µM; in the assay on KM12 colon, 2.87 µM; in the assay with LOX IMVI melanoma, 2.78 µM. The values for the TGI with HOP-92 NSCLC, in the assay with K-562 leukemia and with CAKI-1 renal were 5.85 µM, 5.58 µM and 3.54 µM, respectively.
With `COc1ccc(-c2c(-c3cc4c(c(OC)c3OC)OCO4)noc2N)cc1`, the GI50 is 0.235 µM in the assay on SW-620 colon; 2.69 µM in the assay with UO-31 renal; 0.231 µM in the assay with M14 melanoma; 0.0376 µM with SR leukemia; 0.179 µM in the assay on KM12 colon; 0.48 µM in the assay on LOX IMVI melanoma. In addition, the GI50 in the assay with HOP-92 NSCLC was 0.679 µM; with K-562 leukemia it was 0.0688 µM; in the assay with CAKI-1 renal, 0.404 µM. The TGI was greater than 100 µM in the assay with SW-620 colon; greater than 100 µM in the assay with UO-31 renal; 3.24 µM in the assay with M14 melanoma; 69.8 µM in the assay on SR leukemia; greater than 100 µM with KM12 colon; greater than 100 µM in the assay with LOX IMVI melanoma. For the same compound, the TGI in the assay on HOP-92 NSCLC is 46.3 µM; with K-562 leukemia it was greater than 100 µM; with CAKI-1 renal, greater than 100 µM.
As to `N#Cc1c(N)n(C2OC(CO)C(O)C2O)c2ncnc(N)c12` (stereo unspecified), the TGI was 0.265 µM in the assay on M14 melanoma; 1.33 µM in the assay with RXF 393 renal; 0.0474 µM in the assay on SR leukemia; 1.98 µM in the assay with KM12 colon; 0.0595 µM with LOX IMVI melanoma; greater than 100 µM in the assay with HOP-92 NSCLC. In addition, the TGI in the assay with K-562 leukemia was greater than 20.2 µM; with CAKI-1 renal, 0.263 µM.
For `COc1ccc(Nc2[nH]n(C3=Nc4ccccc4Sc4ccccc43)c(=O)c2C#N)cc1`, the GI50 with SW-620 colon is 3.18 µM; with UO-31 renal it was 1.02 µM; in the assay on M14 melanoma, 2.49 µM; with RXF 393 renal, 1.73 µM; with SR leukemia, 0.518 µM; with KM12 colon it was 1.64 µM. Also, the GI50 in the assay on LOX IMVI melanoma is 1.37 µM; in the assay with CAKI-1 renal, 0.255 µM. Also, the TGI with SW-620 colon was greater than 100 µM; with UO-31 renal, greater than 100 µM; in the assay on M14 melanoma, 9.64 µM; in the assay on RXF 393 renal, 9.75 µM; in the assay on SR leukemia it was greater than 100 µM; with KM12 colon it was 11.3 µM. Also, the TGI in the assay with LOX IMVI melanoma was 4.27 µM; in the assay with CAKI-1 renal it was 1.57 µM.
With `Nc1nc(=O)c2[nH]cnc2n1O`, the TGI in the assay with SW-620 colon, in the assay with UO-31 renal, with M14 melanoma, in the assay on RXF 393 renal, in the assay on SR leukemia and with KM12 colon was greater than 100 µM throughout. Moreover, the TGI in the assay on LOX IMVI melanoma, in the assay on HOP-92 NSCLC and in the assay with K-562 leukemia was greater than 100 µM each time.
On to `CC12CCC(=O)N1c1cc([N+](=O)[O-])ccc1N2` (stereo unspecified), for which the TGI with SW-620 colon, with UO-31 renal, with M14 melanoma, in the assay on RXF 393 renal, in the assay with SR leukemia and in the assay with KM12 colon was greater than 100 µM throughout. Moreover, the TGI in the assay with LOX IMVI melanoma and in the assay on K-562 leukemia was greater than 100 µM each time.
